This note sets out measurements from patent US20230107216A1, “PANTETHEINE DERIVATIVES AND USES THEREOF” (Comet Therapeutics, Inc., priority 2018, published 2023).

Each structure is given as a SMILES string. Like-named read-outs stand apart in the source and are kept apart here.

The subject of assay [1] is Venular Endothelial cells (HUVEC) (4H system). The assay can be described thus: BioMAP 4H system (IL-4 and histamine). Format: cell-based, human. The settings on record: 1 uM; procedure of Example 826.
For assay [2], the system named is Methylmalonic Acidemia (MMA) primary fibroblasts Tsi 5224. The assay can be described thus: Mitochondrial respiration, XFe96 Extracellular Flux Analyzer (OCR/ECAR), MMA fibroblasts Tsi 5224.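 Further: relative to vehicle DMSO control.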 Format: cell-based. The settings on record: Homo sapiens, Fibroblast, read-out: Increase in Maximal Respiratory Capacity AUC. The essentials: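 Primary fibroblasts (20000 cells/well) were held 24 h in supplemented DMEM before Seahorse OCR/ECAR profiling. Compounds at 10 to 50 μM or 0.1% DMSO were injected after baseline, then oligomycin 1 μg/ml, FCCP, and rotenone/antimycin A 0.5 μM. Values were normalized to Hoechst nuclear counts, baselined to pre-compound, and expressed relative to vehicle.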

The test system of assay [3] is primary fibroblasts (healthy controls and PA, MMA, BCKDK, PDH, VLCAD, LS, PC, GA, VLCFA, KSS, FXN, HD). The assay can be described thus: Measurement of ROS (H2DCFDA) in primary fibroblasts. Format: cell-based, human. The settings on record: Homo sapiens, procedure Example 812, Assay Condition C. How it is done: Primary adherent fibroblasts were cultured in minimum essential medium (MEM) (Gibco, 25030081) supplemented with 2 mM L-Glutamine (Gibco, 25030081), 15% fetal bovine serum (FBS) (Gibco, 26400044) and 1% penicillin/streptomycin (Gibco, 5140122) at 37° C. and 5% CO2. Cells were collected for either passaging or experiment at ˜70-80% confluence. Cells were obtained by trypsinization and seeded in cell culture microplates either white plate (Thermo Fisher Scientific, 152028) for luminescent measurement or black plate (Thermo Fisher Scientific, 165305) for fluorescent based read out for different assays listed below. Cells were obtained by trypsinization and […] were seeded and allowed to adhere for 16-18 hours to have confluency around 70-80% in the cell well with culture media. After 24 hours prior to measurements (37° C., 5% CO2) media was changed to Dulbecco's Modified Eagle Medium (DMEM, Agilent Seahorse cat #103575-100) with the appropriate supplements as stated below.
Primary fibroblasts assayed were Healthy controls (GM00041, GM05659, GM23974 Coriell Institute for Medical Research), Propionic Acidemia (PA) (GM00371, GM03590 Coriell Institute for Medical Research, Tsi 6337 Trans-Hit Bio), Methylmalonic Acidemia (MMA) (GM01673, Coriell Institute for Medical Research, Tsi 5224, Tsi 4290 Trans-Hit Bio), Branched chain ketoacid dehydrogenase kinase (BCKDK) (GM00612, GM00649 Coriell Institute for Medical Research), Subnormal activation of pyruvate dehydrogenase complex (PDH) (GM01503 Coriell Institute for Medical Research), Very long-chain acyl-CoA dehydrogenase (VLCAD) (GM17475), Leigh Syndrome (LS) (GM03672, GM13411 Coriell Institute for Medical Research), Pyruvate Carboxylase Deficiency (PC) (GM00444 Coriell Institute for Medical Research), Glutaric Acidemia-I (GA), Impaired VLCFA oxidation (VLCFA) (GM13262), Kearns-Sayre Syndrome (KSS) (GM06225 Coriell Institute for Medical Research), Friedreich's Ataxia (FXN), Huntington's disease (HD) (GM21756 Coriell Institute for Medical Research). Next, cells were treated with compounds (10 μM) and ROS H2DCFDA (22 μM) dye for 2 hours in PA, MMA lines and for 24h for the other fibroblast lines. Kinetic read was started immediately with a i3x plate reader (492/527 nm) for 60 minutes.
A total dead cell count was performed as described in Example 817 and only alive cells were used for analysis.

The subject of assay [4] is Propionic Acidemia (PA) primary fibroblasts Tsi 6337. The assay can be described thus: Mitochondrial respiration, XFe96 Extracellular Flux Analyzer (OCR/ECAR), PA fibroblasts Tsi 6337. Format: cell-based. The settings on record: Homo sapiens, Fibroblast. How it is done: The effect of the compounds of the present disclosure on mitochondrial respiration was measured with a XFe96 Extracellular Flux Analyzer (Seahorse Bioscience, Agilent Technologies) and Oxygen consumption Rate (OCR) and Extracellular acidification rate (ECAR) determined.
Cell culture and treatments. Primary adherent fibroblasts were cultured in minimum essential medium (MEM) (Gibco, 25030081) supplemented with 2 mM L-Glutamine (Gibco, 25030081), 15% fetal bovine serum (FBS) (Gibco, 26400044) and 1% penicillin/streptomycin (Gibco, 5140122) at 37° C. and 5% CO2. Cells were collected for either passaging or experiment at ˜70-80% confluence. Cells were obtained by trypsinization and seeded at 20000 cells/well in cell culture microplates (Seahorse Bioscience, 101085-004) and allowed to adhere for 16 hours in culture media.
By profiling different primary cells and/or optimizing their culture media or environmental components one can select cell lines and/or conditions that are appropriate for the biological or disease model. In the present example, 24 hours prior to OCR and ECAR profiling, media was changed to Dulbecco's Modified Eagle Medium (DMEM, Agilent Seahorse 103575-100) with the appropriate supplements for the different primary cells (10 mM glucose, 2 mM L-glutamine, 1 mM pyruvate, 10% FBS; 1 mM glucose, 2 mM L-glutamine, 1 mM pyruvate, 10% FBS; 10 mM glucose, 10% FBS; 5 mM glucose 10% FBS; 1 mM glucose 10% FBS). Cells used in this example were: Propionic Acidemia (PA) (GM00371, GM03590 Coriell Institute for Medical Research, Tsi 6337, Tsi 4626, Tsi 3618 Trans-Hit Bio), Methylmalonic Acidemia (MMA) (GM01673, Coriell Institute for Medical Research, Tsi 5224 Trans-Hit Bio), Branched chain ketoacid dehydrogenase kinase (BCKDK) (GM00612, GM00649 Coriell Institute for Medical Research), Subnormal activation of pyruvate dehydrogenase complex (PDH) (GM01503 Coriell Institute for Medical Research), Very long-chain acyl-CoA dehydrogenase (VLCAD) (GM17475), Leigh Syndrome (LS) (GM03672, GM13411 Coriell Institute for Medical Research), Pyruvate Carboxylase Deficiency (PC) (GM00444 Coriell Institute for Medical Research), Glutaric Acidemia-I (GA) (GM10653), Friedreich's Ataxia (FXN) (GM04078 Coriell Institute for Medical Research, Huntington's disease (HD) (GM21756 Coriell Institute for Medical Research), Ornithine Transcarbamylase Deficiency (OTC) (GM12756 Coriell Institute for Medical Research), Kearns-Sayre Syndrome (KSS) (GM06225 Coriell Institute for Medical Research).
One hour before the assay, the cells were washed with freshly prepared unbuffered serum free-Seahorse XF Assay medium (Seahorse Bioscience, North America, USA, 103575-100) with the same supplements as for the previous 24 hour incubation.
After baseline measurements of OCR, cells were challenged with compounds of the present disclosure at different concentrations (10 to 50 μM) or vehicle (DMSO, 0.1%) and a post-compound baseline was recorded. OCR was measured after sequentially adding to each well 1 μg/ml oligomycin (inhibitor of ATP synthase Sigma-Aldrich, 753531), then maximal OCR was determined with carbonyl cyanide 4-(trifluoromethoxy) phenylhydrazone (FCCP, Sigma-Aldrich, C2920), (uncoupler of oxidative phosphorylation) and 0.5 μM of rotenone (Sigma-Aldrich, R8875) plus antimycin A (Sigma-Aldrich, A8674) (inhibitors of mitochondrial complex I and III) for determination of rotenone-antimycin insensitive respiration together with Hoechst for nuclear staining in situ when normalized to cell counts. After the analysis and nuclear staining, the XFp microplate was transferred to the Cytation 5, and the nuclear images were captured, the individual nuclei were identified and counted by BioTek Gen5 software. Data were expressed as pmol of O2 per minute and normalized by nuclear staining and baselined to pre-compound addition.
Assay conditions were as stated below.
Assay specifics on assay conditions are indicated below when readouts were normalized to cell counts. […]

The subject of assay [5] is monocyte-derived M1 macrophages. The assay can be described thus: M1 differentiation assay (macrophage TNFα, IL6, IL10 ELISA, FACS). Format: cell-based, human. How it is done:
Monocytes were isolated by positive isolation with CD14+ microbeads (Miltenyi, 130-050-201). Monocytes were 99% viable and were 96% purity as analyzed by FACS and CD14+ (BD, 563561). 100,000 monocytes along with compounds at the dose of 10 and 50 μM were allowed to differentiate to macrophages with 10 ng/ml GMCSF (R&D, 15-GM-050/CF) in RPMI complete media (Invitrogen, 22400089) with 15% FBS (Hyclone SV30087.03) and 1% Penicillin-Streptomycin (Gibco, 15140-122). On day 2 and 4 half the media was refreshed with fresh GM-CSF and compounds at 10 and 50 μM dose. On day 6 the macrophages were matured with GMCSF, IFNγ (R&D 285-IF-100/CF) and LPS (Sigma, L6143) in the presence of 10 μM and 50 μM of compounds. After 24h, supernatant was collected for the measurement of TNFα (DKW, 1117202) IL6 (DKW, 1110602), IL10 (DKW, 1110003) by ELISA. Macrophages were detached gently on ice with EDTA (Invitrogen, 15575-038) and analyzed by FACS (BD LSR Fortessa, 853492). Cells were stained for live/dead dye, surface and intracellular markers with fixation/permeabilization solution (BD, 554714) and ALIVE/DEAD™ Fixable Near-IR Dead Cell Stain Kit (BD, L34976), mouse anti human CD86 APC (BD, 555660), mouse anti-human CD163 PE (BD, 556018), mouse anti-human CD68 FITC (BD, 562117) or isotype controls anti-mouse IgG1 κ PE (BD, 559320) and anti-mouse IgG1 κ APC (BD, Anti mouse IgG1 κ APC (BD, 55571). Mature M1 macrophages were defined as CD86+CD68+CD163− and increase in TNFα, IL6, and decrease in IL-10.

Setting [6] is: MMA Tsi 5224, assay condition A (10 mM glucose, 2 mM L-glutamine, 1 mM pyruvate, 10% FBS).
Setting [7] is: PA Tsi 6337, assay condition D (1 mM glucose, 10% FBS), read-out: Increase in Maximal Respiratory Capacity AUC.
Setting [8] is: PA Tsi 6337, assay condition A (10 mM glucose, 2 mM L-glutamine, 1 mM pyruvate, 10% FBS), read-out: Increase in Maximal Respiratory Capacity AUC.

For `C/C=C/C(=O)CC(=O)SCCNC(=O)CCNC(=O)[C@H](O)C(C)(C)CO` [Compound 36, (2R)-2,4-dihydroxy-3,3-dimethyl-N-[2-[(2-[[(4E)-3-oxohex-4-enoyl]sulfanyl]ethyl)carbamoyl]ethyl]butanamide], the “% decrease in Eotaxin-3” value in assay [1] is reported as no less than 10%. In addition, the activation at 10 µM in assay [2] (setting [6]) is no less than 10%.

`COC(=O)C(=O)SCCNC(=O)CCNC(=O)[C@H](O)C(C)(C)COP(=O)(O)O` [Compound 60, Methyl (R)-2-((2-(3-(2-hydroxy-3,3-dimethyl-4-(phosphonooxy)butanamido)propanamido)ethyl)thio)-2-oxoacetate]: the inhibition at 10 µM was no less than 10% in assay [3] (Fibroblast, KSS GM06225, read-out: Decreased ROS by at least 10%) and no less than 30% in assay [3] (Fibroblast, KSS GM06225, read-out: Decreased ROS by at least 30%). In addition, the activation at 10 µM in assay [4] (setting [7]) was no less than 10%; in assay [2] (MMA Tsi 5224, assay condition D (1 mM glucose, 10% FBS)), no less than 10%.

In the case of `CC(C)(CO)[C@@H](O)C(=O)NCCC(=O)NCCSC(=O)[C@@H](N)CC(=O)O` [Compound 390], the activation at 10 µM is no less than 10% in assay [4] (PA Tsi 6337, assay condition D (1 mM glucose, 10% FBS), read-out: Increase in Spare Capacity AUC) and no less than 10% in assay [2] (setting [6]).

For the molecule `COC(=O)CC(O)(CC(=O)OC)C(=O)SCCNC(=O)CCNC(=O)[C@H](O)C(C)(C)CO` [Compound 418], the “% decrease in Live Macrophage Cells” value in assay [5] (50 uM) is on record as no less than 20%. For the same molecule, the activation at 10 µM in assay [5] (Homo sapiens, Macrophage, 10 uM, read-out: % Increase in IL-10 Secretion) is no less than 30%; in assay [4] (setting [7]), no less than 10%. Further, the inhibition at 10 µM in assay [5] (Homo sapiens, Macrophage, 10 uM, read-out: % decrease in Macrophage IL-6 Secretion) was no less than 30%; in assay [5] (Homo sapiens, Macrophage, 10 uM, read-out: % decrease in Macrophage TNFα Secretion) it was no less than 30%.

On to `COC(=O)CCC(=O)SCCNC(=O)CCNC(=O)[C@H](O)C(C)(C)COC(=O)CN` [Compound 1228], for which the activation at 10 µM in assay [4] (setting [8]), in assay [4] (setting [7]) and in assay [2] (setting [6]) was no less than 10% throughout.

In the case of `CC(C(=O)SCCNC(=O)CCNC(=O)[C@H](O)C(C)(C)CO)[C@H](C)O` (stereo partly drawn) [Compound 1248, (2R)-2,4-dihydroxy-N-{2-[(2-{[(3S)-3-hydroxy-2-methylbutanoyl]sulfanyl}ethyl)carbamoyl]ethyl}-3,3-dimethylbutanamide], the activation at 10 µM in assay [4] (setting [8]) and in assay [2] (setting [6]) was no less than 10% in each case.

On to `CC[C@H](O)CC(=O)SCCNC(=O)CCNC(=O)[C@H](O)C(C)(C)CO` [Compound 1249, (2R)-2,4-dihydroxy-N-{2-[(2-{[(3S)-3-hydroxypentanoyl]sulfanyl}ethyl)carbamoyl]ethyl}-3,3-dimethylbutanamide], for which the inhibition at 10 µM in assay [3] (Fibroblast, VLCAD GM17475, read-out: Decreased ROS by at least 10%) was no less than 10%; in assay [3] (Fibroblast, VLCAD GM17475, read-out: Decreased ROS by at least 30%), no less than 30%; in assay [3] (FXN GM04078, read-out: Decreased ROS by at least 10%), no less than 10%; in assay [3] (FXN GM04078, read-out: Decreased ROS by at least 30%) it was no less than 30%. Moreover, the activation at 10 µM in assay [4] (setting [8]) was no less than 10%.
